Like-named read-outs stand apart in the source and are kept apart here.
Legend:
[1] = Cytotoxicity, CellTiter-Glo Luminescent Cell Viability Assay; settings: human, Huh7 cells
Huh7 cells = test: as above; settings: Table 2, 24 h incubation
[2] = tested on: EBOV-GFP (recombinant Ebolavirus encoding a GFP reporter gene); test: microbe, parasite or virus in culture; format: cell-based
Ebolavirus [3] = settings: cited from earlier work
[4] = in humans, metabolite formed by CYP2C8; cited from earlier work
Ebolavirus [5] = settings: human, in vivo; cited from earlier work

| SMILES | CC50 at 24 h [1] | CC50 (Huh7 cells) | Selectivity index [2] | fold potency relative to amodiaquine [2] | IC50 ([2]; Orthoebolavirus, Huh-7) | IC50 ([2]; Orthoebolavirus, Huh-7, 24 h) | anti-Ebolavirus activity (previous reports) (Ebolavirus [3]) | half-life [4] | IC50 ([2]; read-out: IC50) | mortality rate (Ebolavirus [5]) |
| --- | --- | --- | --- | --- | --- | --- | --- | --- | --- | --- |
| CCN(CC)Cc1cc(Nc2ccnc3cc(I)ccc23)ccc1O [Compound 18, 4-(7-iodoquinolin-4-ylamino)-2-diethylaminomethylphenol] | > 100000 nM | > 100000 nM | >156 | 3.3 fold | 640 nM | 640 ± 50 nM |  |  |  |  |
| CCN(CC)Cc1cc(Nc2ccnc3cc(Cl)ccc23)cc(-c2ccc(Cl)cc2)c1O [Compound 20, 6-(4-chlorophenyl)-4-(7-chloroquinolin-4-ylamino)-2-diethylaminomethylphenol] | 19500 nM |  | 15 | 1.6 fold | 1310 nM | 1310 ± 100 nM |  |  |  |  |
| CCCN(CCC)Cc1cc(Nc2ccnc3cc(Cl)ccc23)ccc1O [Compound 26, 4-(7-chloroquinolin-4-ylamino)-2-dipropylaminomethylphenol] | > 100000 nM |  | >106 |  | 940 nM | 940 ± 80 nM |  |  |  |  |
| CCN(C)Cc1cc(Nc2ccnc3cc(I)ccc23)ccc1O [Compound 31, 4-(7-iodoquinolin-4-ylamino)-2-ethylmethylaminomethylphenol] | > 100000 nM |  | >161 |  | 620 nM | 620 ± 60 nM |  |  |  |  |
| CCN(CC)CCCC(C)Nc1c2ccc(Cl)cc2nc2ccc(OC)cc12 (centres unmarked) [quinacrine] |  |  |  |  |  |  | anti-Ebolavirus activities |  |  |  |
| CCN(CCO)Cc1cc(Nc2ccnc3cc(I)ccc23)ccc1O [Compound 39, 4-(7-iodoquinolin-4-ylamino)-2-ethyl(2-hydroxyethyl)aminomethylphenol] | > 100000 nM |  | >244 |  | 410 nM | 410 ± 50 nM |  |  |  |  |
| Oc1ccc(Nc2ccnc3cc(Cl)ccc23)cc1CN1CCCC1 [Compound 21, 4-(7-chloroquinolin-4-ylamino)-2-pyrrolidinylmethylphenol] | 33200 nM |  | 30 |  | 1090 nM | 1090 nM |  |  |  |  |
| Oc1ccc(Nc2ccnc3cc(I)ccc23)cc1CN1CCCC1 [Compound 42, 4-(7-iodoquinolin-4-ylamino)-2-(1-pyrrolidinylmethyl)phenol] | 35300 nM |  | 54 |  | 660 nM | 660 ± 50 nM |  |  |  |  |
| CCCN(CC)Cc1cc(Nc2ccnc3cc(I)ccc23)ccc1O [Compound 40, 4-(7-iodoquinolin-4-ylamino)-2-ethylpropylaminomethylphenol] | > 100000 nM |  | >278 |  | 360 nM | 360 ± 40 nM |  |  |  |  |
| CCCCN(CCCC)Cc1cc(Nc2ccnc3cc(Cl)ccc23)ccc1O [Compound 28, 4-(7-chloroquinolin-4-ylamino)-2-dibutylaminomethylphenol] | > 100000 nM | > 100000 nM | >139 |  | 720 nM | 720 ± 80 nM |  |  |  |  |
| CCCCN(CC)Cc1cc(Nc2ccnc3cc(I)ccc23)ccc1O [Compound 41, 4-(7-iodoquinolin-4-ylamino)-2-ethylbutylaminomethylphenol] | 60400 nM |  | 147 |  | 410 nM | 410 ± 40 nM |  |  |  |  |
| CCCCCCN(C)Cc1cc(Nc2ccnc3cc(I)ccc23)ccc1O [Compound 37, 4-(7-iodoquinolin-4-ylamino)-2-hexylmethylaminomethylphenol] | > 100000 nM |  | >256 |  | 390 nM | 390 ± 20 nM |  |  |  |  |
| CCNCc1cc(Nc2ccnc3cc(Cl)ccc23)ccc1O [desethyl-amodiaquine] |  |  |  |  |  |  | potent anti-Ebolavirus activity | 220 to 432 h |  |  |
| CCCN(C)Cc1cc(Nc2ccnc3cc(I)ccc23)ccc1O [Compound 34, 4-(7-iodoquinolin-4-ylamino)-2-methylpropylaminomethylphenol] | > 100000 nM |  | >233 |  | 430 nM | 430 ± 60 nM |  |  |  |  |
| CCCCN(C)Cc1cc(Nc2ccnc3cc(I)ccc23)ccc1O [Compound 35, 4-(7-iodoquinolin-4-ylamino)-2-butylmethylaminomethylphenol] | 66100 nM |  | 150 |  | 440 nM | 440 ± 40 nM |  |  |  |  |
| Oc1ccc(Nc2ccnc3cc(I)ccc23)cc1CN1CCSCC1 [Compound 45, 4-(7-iodoquinolin-4-ylamino)-2-(4-thiamorpholinylmethyl)phenol] | > 100000 nM |  | >51 |  | 1950 nM | 1950 ± 220 nM |  |  |  |  |
| CCN(CC)Cc1cc(Nc2ccnc3cc(Cl)ccc23)ccc1O [Amodiaquine] |  | 79000 nM |  |  |  |  | potent anti-Ebolavirus activity |  | 2130 nM | 50% |
| Oc1ccc(Nc2ccnc3cc(I)ccc23)cc1CN1CCOCC1 [Compound 44, 4-(7-iodoquinolin-4-ylamino)-2-(4-morpholinylmethyl)phenol] | > 100000 nM |  | >63 |  | 1590 nM | 1590 ± 120 nM |  |  |  |  |
| CCCCCCNCc1cc(Nc2ccnc3cc(Cl)ccc23)ccc1O [Compound 23, 4-(7-chloroquinolin-4-ylamino)-2-hexylaminomethylphenol] | 5180 nM |  | 18 |  | 290 nM | 290 ± 30 nM |  |  |  |  |
| CN(C)Cc1cc(Nc2ccnc3cc(I)ccc23)ccc1O [Compound 30, 4-(7-iodoquinolin-4-ylamino)-2-dimethylaminomethylphenol] | > 100000 nM |  | >145 |  | 690 nM | 690 ± 80 nM |  |  |  |  |
| CCCN(CC)Cc1cc(Nc2ccnc3cc(Cl)ccc23)ccc1O [Compound 29, 4-(7-chloroquinolin-4-ylamino)-2-(ethylpropylamino)methylphenol] | > 100000 nM |  | >72 |  | 1390 nM | 1390 ± 130 nM |  |  |  |  |
| CCCCCN(C)Cc1cc(Nc2ccnc3cc(I)ccc23)ccc1O [Compound 36, 4-(7-iodoquinolin-4-ylamino)-2-methylpentylaminomethylphenol] | > 100000 nM |  | >270 |  | 370 nM | 370 ± 40 nM |  |  |  |  |
| COc1ccc2nc3cc(Cl)ccc3c(Nc3cc(CN4CCCC4)c(O)c(CN4CCCC4)c3)c2n1 [pyronaridine] |  |  |  |  |  |  | anti-Ebolavirus activities |  |  |  |
| CCCN(C)Cc1cc(Nc2ccnc3cc(Cl)ccc23)ccc1O [Compound 14, 4-(7-chloroquinolin-4-ylamino)-2-(methylpropylamino)methylphenol] | > 100000 nM |  | >82 |  | 1220 nM | 1220 ± 110 nM |  |  |  |  |
| CC(C)(C)NCc1cc(Nc2ccnc3cc(Cl)ccc23)ccc1O [Compound 9, 4-(7-chloroquinolin-4-ylamino)-2-tert-butylaminomethylphenol] | 26100 nM |  | 22 |  | 1210 nM | 1210 ± 90 nM |  |  |  |  |
| CCCCN(C)Cc1cc(Nc2ccnc3cc(Cl)ccc23)ccc1O [Compound 25, 4-(7-chloroquinolin-4-ylamino)-2-(butylmethylamino)methylphenol] | 65900 nM |  | 77 |  | 860 nM | 860 ± 80 nM |  |  |  |  |
| CCN(Cc1cc(Nc2ccnc3cc(Cl)ccc23)ccc1O)C(C)C [Compound 11, 4-(7-chloroquinolin-4-ylamino)-2-(ethylisopropylamino)methylphenol] | 60500 nM |  | 41 |  | 1460 nM | 1460 ± 150 nM |  |  |  |  |
| CC(C)N(C)Cc1cc(Nc2ccnc3cc(Cl)ccc23)ccc1O [Compound 8, 4-(7-chloroquinolin-4-ylamino)-2-(isopropylmethylamino)methylphenol] | 39200 nM |  | 27 |  | 1460 nM | 1460 ± 140 nM |  |  |  |  |
| CC(C)N(C)Cc1cc(Nc2ccnc3cc(I)ccc23)ccc1O [Compound 32, 4-(7-iodoquinolin-4-ylamino)-2-isopropylmethylaminomethylphenol] | 38400 nM |  | 132 |  | 290 nM | 290 ± 40 nM |  |  |  |  |
| Oc1ccc(Nc2ccnc3cc(I)ccc23)cc1CN1CCCCC1 [Compound 43, 4-(7-iodoquinolin-4-ylamino)-2-(1-piperidinylmethyl)phenol] | > 100000 nM |  | >270 |  | 370 nM | 370 ± 70 nM |  |  |  |  |

Reference: patent US11571416B2, “Amodiaquine analogs and methods of uses thereof” (priority 2017, dated 2023)
